{"source": "BindingDB's records for doi:10.1016/j.bmcl.2017.01.084", "about": "(China Pharmaceutical University, 2017)", "assay": "Agonist activity at VDR in human HL60 cells assessed as induction of cell differentiation by measuring increase in NBT positive cells by Wright staining based microscopic method", "note": "pEC50: −log10 of the molar value.", "data": [{"smiles": "CCn1c(C(=O)NCCCO)ccc1C(CC)(CC)c1ccc(C#CC(O)(CC)CC)c(C)c1", "values": [{"measurement": "pEC50", "result": 6.86}]}, {"smiles": "CCn1c(C(=O)N[C@H](C(=O)O)C(C)C)ccc1C(CC)(CC)c1ccc(C#CC(O)(CC)CC)c(C)c1", "values": [{"measurement": "pEC50", "result": 7.74}]}, {"smiles": "CCN(CC)CCNC(=O)c1cc(C(CC)(CC)c2ccc(C#CC(O)(CC)CC)c(C)c2)cn1CC", "values": [{"measurement": "pEC50", "result": 8.15}]}, {"smiles": "CCn1cc(C(CC)(CC)c2ccc(C#CC(O)(CC)CC)c(C)c2)cc1C(=O)OCCO", "values": [{"measurement": "pEC50", "result": 7.89}]}, {"smiles": "CCCCC(=O)c1ccc(C(CC)(CC)c2ccc(C#CC(O)(CC)CC)c(C)c2)n1CC", "values": [{"measurement": "pEC50", "result": "< 7.30"}]}, {"smiles": "CCn1cc(C(CC)(CC)c2ccc(C#CC(O)(CC)CC)c(C)c2)cc1C(=O)N[C@@H](C)CO", "values": [{"measurement": "pEC50", "result": 8.14}]}, {"smiles": "CCn1c(C(=O)NCCC(=O)O)ccc1C(CC)(CC)c1ccc(C#CC(O)(CC)CC)c(C)c1", "values": [{"measurement": "pEC50", "result": 6.53}]}, {"smiles": "CCn1c(C(=O)NCCC(=O)OC)ccc1C(CC)(CC)c1ccc(C#CC(O)(CC)CC)c(C)c1", "values": [{"measurement": "pEC50", "result": "< 7.30"}]}, {"smiles": "CCn1cc(C(CC)(CC)c2ccc(C#CC(O)(CC)CC)c(C)c2)cc1C(=O)NCC(=O)OC", "values": [{"measurement": "pEC50", "result": 6.54}]}, {"smiles": "CCN(CC)CCCNC(=O)c1ccc(C(CC)(CC)c2ccc(C#CC(O)(CC)CC)c(C)c2)n1CC", "values": [{"measurement": "pEC50", "result": 7.16}]}, {"smiles": "CCn1c(C(=O)NCC(=O)O)ccc1C(CC)(CC)c1ccc(C#CC(O)(CC)CC)c(C)c1", "values": [{"measurement": "pEC50", "result": 8.03}]}, {"smiles": "CCn1c(C(=O)On2nnc3ccccc32)ccc1C(CC)(CC)c1ccc(C#CC(O)(CC)CC)c(C)c1", "values": [{"measurement": "pEC50", "result": "< 7.30"}]}, {"smiles": "CCN(CC)CCNC(=O)c1ccc(C(CC)(CC)c2ccc(C#CC(O)(CC)CC)c(C)c2)n1CC", "values": [{"measurement": "pEC50", "result": 8.00}]}, {"smiles": "CCn1cc(C(CC)(CC)c2ccc(C#CC(O)(CC)CC)c(C)c2)cc1C(=O)N[C@H](C(=O)O)C(C)C", "values": [{"measurement": "pEC50", "result": 7.89}]}, {"smiles": "C#CCCOC(=O)c1ccc(C(CC)(CC)c2ccc(C#CC(O)(CC)CC)c(C)c2)n1CC", "values": [{"measurement": "pEC50", "result": "< 7.30"}]}, {"smiles": "CCn1c(C(=O)NCc2ccc(OC)cc2)ccc1C(CC)(CC)c1ccc(C#CC(O)(CC)CC)c(C)c1", "values": [{"measurement": "pEC50", "result": "< 7.30"}]}, {"smiles": "CCn1cc(C(CC)(CC)c2ccc(C#CC(O)(CC)CC)c(C)c2)cc1C(=O)NCCN(C)C", "values": [{"measurement": "pEC50", "result": 7.72}]}, {"smiles": "CCn1cc(C(CC)(CC)c2ccc(C#CC(O)(CC)CC)c(C)c2)cc1C(=O)NCCCN(C)C", "values": [{"measurement": "pEC50", "result": 6.85}]}, {"smiles": "CCN(CC)CCNC(=O)c1ccc(C(CC)(CC)c2ccc(OCC(O)C(C)(C)C)c(C)c2)n1CC", "note": "(stereo not drawn)", "values": [{"measurement": "pEC50", "result": 8.19}]}, {"smiles": "CCn1cc(C(CC)(CC)c2ccc(C#CC(O)(CC)CC)c(C)c2)cc1C(=O)N[C@@H](C(=O)O)C(C)C", "values": [{"measurement": "pEC50", "result": 7.17}]}, {"smiles": "CCn1cc(C(CC)(CC)c2ccc(C#CC(O)(CC)CC)c(C)c2)cc1C(=O)NCCC(=O)O", "values": [{"measurement": "pEC50", "result": "< 7.30"}]}, {"smiles": "CCCCC(=O)c1cc(C(CC)(CC)c2ccc(C#CC(O)(CC)CC)c(C)c2)cn1CC", "values": [{"measurement": "pEC50", "result": "< 7.30"}]}, {"smiles": "CCn1cc(C(CC)(CC)c2ccc(C#CC(O)(CC)CC)c(C)c2)cc1C(=O)NCC(=O)O", "values": [{"measurement": "pEC50", "result": 7.27}]}]}
